For four compounds, EC50 results are on record in publication PMC11578313, “Miniaturized Modular Click Chemistry‐enabled Rapid Discovery of Unique SARS‐CoV‐2 M^pro Inhibitors With Robust Potency and Drug‐like Profile” (Advanced Science, 2024).

The subject of test [1] is SARS‐CoV‐2 (hCoV‐19/Korea/KCDC06/2020, wild type). Kind of test: microbe, parasite or virus in culture. The class given is cell-based.
The test system of another test is Wild‐type rgSARS‐CoV‐2. Briefly: microbe, parasite or virus in culture. It is filed as cell-based, SARS‐CoV‐2.
The subject of test [2] is rgSARS‐CoV‐2‐M^pro/T21I+E166V. The class given is cell-based, SARS‐CoV‐2. The note with it: read-out: EC50 ± SD, rgSARS‐CoV‐2‐M^pro/T21I +E166V.
Test [3] concerns rgSARS‐CoV‐2‐M^pro/L50F+E166V. It is filed as cell-based, SARS‐CoV‐2. The note with it: read-out: EC50 ± SD, rgSARS‐CoV‐2‐M^pro/L50F+E166V.
Where [4] appears, read: Severe acute respiratory syndrome coronavirus 2, Calu-3; read-out: EC50 ± SD, Wild‐type rgSARS‐CoV‐2.

Molecules are shown by their SMILES. Like-named read-outs stand apart in the source and are kept apart here.

For the compound `Cc1cncc(C(=O)N2C[C@H]3CC[C@@H](C2)N3[C@H](c2cccc(F)c2)c2cn(CCc3ccsc3)nn2)c1` [Compound C5N17B], the EC50 was 130 to 260 nM in test [1] (Severe acute respiratory syndrome coronavirus 2, Calu-3, Gamma, Delta, and Omicron, read-out: EC50 against several SARS‐CoV‐2 variants); 119 to 260 nM in test [1] (Severe acute respiratory syndrome coronavirus 2, wild‐type, gamma, delta, and omicron, Calu‐3, read-out: EC50 against the original strain and its circulating variants); < 46 nM with Wild‐type rgSARS‐CoV‐2 (setting [4]); 260 ± 29 nM in test [2]; 150 ± 19 nM in test [3].
On to `Cc1cncc(C(=O)N2C[C@H]3CC[C@@H](C2)N3C(c2cccc(F)c2)c2cn(CCc3ccsc3)nn2)c1` (some centres unmarked) [Compound C5N17], for which the results for the EC50 (with Wild‐type rgSARS‐CoV‐2 (setting [4]); in test [2]; in test [3]) were 441 ± 32 nM, 1470 ± 123 nM and 966 ± 40 nM, respectively.
Regarding `CC(C)(C)[C@H](NC(=O)C(F)(F)F)C(=O)N1C[C@H]2[C@@H]([C@H]1C(=O)N[C@H](C#N)C[C@@H]1CCNC1=O)C2(C)C` [Nirmatrelvir, reference compound], the EC50 in the test on Wild‐type rgSARS‐CoV‐2 (Severe acute respiratory syndrome coronavirus 2, Calu-3, read-out: EC50 ± SD, Wild‐type rgSARS‐CoV‐2) is 2770 ± 33 nM; in test [2], > 100000 nM; in test [3], > 100000 nM.
As for `Cc1cncc(C(=O)N2C[C@H]3CC[C@@H](C2)N3C(c2cccc(F)c2)c2cccc(F)c2)c1` [AA‐625, reference compound], the EC50 with Wild‐type rgSARS‐CoV‐2 (setting [4]) was found to be 779 ± 173 nM; in test [2], 3410 ± 821 nM; in test [3], 5710 ± 664 nM.
